The record followed here is US11332459B2 (TEIJIN PHARMA LIMITED, priority 2017, dated 2022).

The target in the assay is T1, human TRPC6 (Homo sapiens, UniProt Q9Y210).
T1 construct: expressed in transfected cells
T1 sequence (Q9Y210 1-931): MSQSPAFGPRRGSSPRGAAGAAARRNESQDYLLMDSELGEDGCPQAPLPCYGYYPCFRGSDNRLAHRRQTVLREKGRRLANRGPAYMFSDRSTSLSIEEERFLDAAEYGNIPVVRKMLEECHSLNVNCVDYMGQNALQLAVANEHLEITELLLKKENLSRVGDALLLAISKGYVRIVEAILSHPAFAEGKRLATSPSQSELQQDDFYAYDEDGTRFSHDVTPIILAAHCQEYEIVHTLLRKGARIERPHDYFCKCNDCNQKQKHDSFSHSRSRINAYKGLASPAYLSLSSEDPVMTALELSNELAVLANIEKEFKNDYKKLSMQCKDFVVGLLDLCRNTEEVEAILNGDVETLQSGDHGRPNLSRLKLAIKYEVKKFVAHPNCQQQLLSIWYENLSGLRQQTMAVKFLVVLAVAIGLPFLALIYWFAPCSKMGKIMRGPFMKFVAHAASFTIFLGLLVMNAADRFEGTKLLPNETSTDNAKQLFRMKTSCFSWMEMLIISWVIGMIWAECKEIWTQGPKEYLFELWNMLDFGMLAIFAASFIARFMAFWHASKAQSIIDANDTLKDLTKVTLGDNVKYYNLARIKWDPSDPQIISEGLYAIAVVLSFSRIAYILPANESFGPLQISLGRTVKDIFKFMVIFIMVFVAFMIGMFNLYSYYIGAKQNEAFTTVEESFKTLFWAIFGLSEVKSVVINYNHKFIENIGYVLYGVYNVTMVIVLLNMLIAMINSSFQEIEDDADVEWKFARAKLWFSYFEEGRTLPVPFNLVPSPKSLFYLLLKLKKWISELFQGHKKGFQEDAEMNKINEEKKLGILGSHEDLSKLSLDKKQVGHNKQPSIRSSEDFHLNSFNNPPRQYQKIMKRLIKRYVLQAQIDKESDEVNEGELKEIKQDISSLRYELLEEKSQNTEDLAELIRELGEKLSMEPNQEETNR
Briefly: TRPC6 calcium flux assay (FLIPR, OAG-stimulated calcium influx). The assay is classed as cell-based. To be noted: HEK293 cells stably transfected with human TRPC6, read-out: hTRPC6 Potency. The essentials: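 IC50 derived by plotting background-corrected peak fluorescence (180 s window, normalized to OAG-triggered signal vs buffer) against dose. Stable human TRPC6 HEK293 line was dye-loaded, exposed to compound 25 min, then challenged with 50 uM final OAG in 2 mM Ca2+ HEPES buffer pH 7.2, 0.5% DMSO.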
For the compound `C[C@H](c1ccc(C#N)cn1)n1c(N2CC[C@@H]3OCCN[C@H]3C2)nc2c(F)cc(F)cc21` [Example 268, 6-((1R)-1-(4,6-difluoro-2-((4aS,8aS)-hexahydro-2H-pyrido[4,3-b][1,4]oxazin-6(5H)-yl)-1H-benzimidazol-1-yl)ethyl)-3-pyridinecarbonitrile], the IC50 was > 50000 nM.

`N[C@@H]1CN(c2nc3cc(C(F)(F)F)ccc3n2Cc2ncc(F)cn2)CC[C@@H]1F` [Example 306, (3R,4S)-4-fluoro-1-(1-((5-fluoropyrimidin-2-yl)methyl)-5-(trifluoromethyl)-1H-benzo[d]imidazol-2-yl)piperidin-3-amine]: the IC50 came to 1430 nM.

For `C[C@H](C(=O)N(C)C)n1c(N2CC[C@@H](F)[C@H](N)C2)nc2cc(F)c(F)cc21` [Example 279], the IC50 was determined as 7.16 nM. Under `N#CC1(F)CCN(C(=O)Cn2c(N3CC[C@@H](F)[C@H](N)C3)nc3cc(F)c(F)cc32)C1` (stereo partly drawn) [Example 618, 1-(2-(2-((3R,4R)-3-amino-4-fluoropiperidin-1-yl)-5,6-difluoro-1H-benzo[d]imidazol-1-yl)acetyl)-3-fluoropyrrolidine-3-carbonitrile] stands 48.3 nM. The result for `N#Cc1ccc(Cn2c(N3CC[C@@H](F)[C@H](N)C3)nc3cc(C#N)ccc32)cc1` [Example 159, 2-((3R,4R)-3-amino-4-fluoro-1-piperidinyl)-1-(4-cyanobenzyl)-1H-benzimidazole-5-carbonitrile] reads 16.4 nM; that for `N[C@@H]1CN(c2nc3cc(F)c(F)cc3n2Cc2ccc(Cl)c(F)c2)CC[C@H]1F` [Example 360, (3R,4R)-1-(1-(4-chloro-3-fluorobenzyl)-5,6-difluoro-1H-benzimidazol-2-yl)-4-fluoro-3-piperidinamine], 42.9 nM. As for `N#Cc1ccc(Cn2c(N3CCC[C@](N)(CO)C3)nc3ccccc32)nc1` [Example 105, (R)-6-((2-(3-amino-3-(hydroxymethyl)piperidin-1-yl)-1H-benzo[d]imidazol-1-yl)methyl)nicotinonitrile], the IC50 is 2480 nM. `Cc1nc(C)c(Cn2c(N3CC[C@@H](F)[C@H](N)C3)nc3ccc(F)cc32)s1` [Example 589, (3R,4R)-1-(1-((2,4-dimethylthiazol-5-yl)methyl)-6-fluoro-1H-benzo[d]imidazol-2-yl)-4-fluoropiperidin-3-amine]: the IC50 is 1010 nM.

In the case of `N#Cc1ccccc1Cn1c(N2CCC[C@@H](N)C2)nc2ccccc21` [Example 372, (R)-2-((2-(3-aminopiperidin-1-yl)-1H-benzo[d]imidazol-1-yl)methyl)benzonitrile], the IC50 is 14100 nM. On to `Cc1cc(Cn2c(N3CC[C@@H](F)[C@H](N)C3)nc3cc(F)c(F)cc32)no1` [Example 564, (3R,4R)-1-(5,6-difluoro-1-((5-methylisoxazol-3-yl)methyl)-1H-benzo[d]imidazol-2-yl)-4-fluoropiperidin-3-amine], for which the IC50 came out at 29.2 nM. For `N[C@@H]1CN(c2nc3cc(F)c(F)cc3n2Cc2noc(C3CC3)n2)CC[C@H]1F` [Example 578, (3R,4R)-1-(1-((5-cyclopropyl-1,2,4-oxadiazol-3-yl)methyl)-5,6-difluoro-1H-benzo[d]imidazol-2-yl)-4-fluoropiperidin-3-amine], the IC50 was 251 nM.

As for `N#Cc1ccc(Cn2c(N3CC[C@@H](F)[C@H](N)C3)nc3nc(C(F)(F)F)ccc32)nc1` [Example 458, 6-((2-((3R,4R)-3-amino-4-fluoropiperidin-1-yl)-5-(trifluoromethyl)-1H-imidazo[4,5-b]pyridin-1-yl)methyl)nicotinonitrile], the IC50 is 16.3 nM.

As for `N#Cc1ccc(Cn2c(N3CC[C@@H](F)[C@H](N)C3)nc3cc(C(F)(F)F)c(Cl)cc32)nc1` [Example 126, 6-((2-((3R,4R)-3-amino-4-fluoro-1-piperidinyl)-6-chloro-5-(trifluoromethyl)-1H-benzimidazol-1-yl)methyl)-3-pyridinecarbonitrile], the IC50 was 0.48 nM. Regarding `N#Cc1ccc(Cn2c(N3CC[C@@H](F)[C@H](N)C3)nc3cc(F)cc(F)c32)cc1` [Example 156], the IC50 amounted to 61.7 nM.

Turning to `NC(=O)c1cnc(Cn2c(N3CC[C@@H](F)[C@H](N)C3)nc3ccc(C(F)(F)F)cc32)cn1` [Example 134, 5-((2-((3R,4R)-3-amino-4-fluoro-1-piperidinyl)-6-(trifluoromethyl)-1H-benzimidazol-1-yl)methyl)-2-pyrazinecarboxamide], the IC50 came to 4.71 nM. In the case of `N[C@@H]1CN(c2nc3cc(F)ccc3n2Cc2ncc(Cl)cn2)CC[C@@H]1F` [Example 40, (3R,4S)-1-(1-((5-chloropyrimidin-2-yl)methyl)-5-fluoro-1H-benzo[d]imidazol-2-yl)-4-fluoropiperidin-3-amine], the IC50 stood at 4.61 nM. For `COCC1CN(C(=O)Cn2c(N3CC[C@@H](F)[C@H](N)C3)nc3cc(F)c(F)cc32)CCO1` (mixture of isomers) [Example 647, 2-(2-((3R,4R)-3-amino-4-fluoropiperidin-1-yl)-5,6-difluoro-1H-benzo[d]imidazol-1-yl)-1-(2-(methoxymethyl)morpholino) ethanone], the IC50 worked out at 3170 nM. Take `N#Cc1cc(F)cc2nc(N3CCC(F)(F)[C@H](N)C3)n(Cc3ncc(Cl)cn3)c12` [Example 150, (R)-2-(3-amino-4,4-difluoropiperidin-1-yl)-1-((5-chloropyrimidin-2-yl)methyl)-5-fluoro-1H-benzo[d]imidazole-7-carbonitrile]: the IC50 came to 9.02 nM.

Regarding `N[C@@H]1CN(c2nc3cc(F)c(F)cc3n2Cc2nnc(C(F)F)s2)CC[C@H]1F` [Example 560, (3R,4R)-1-(1-((5-(difluoromethyl)-1,3,4-thiadiazol-2-yl)methyl)-5,6-difluoro-1H-benzo[d]imidazol-2-yl)-4-fluoropiperidin-3-amine], the IC50 amounted to 18.7 nM.

On to `CN(CC(F)(F)F)C(=O)Cn1c(N2CC[C@@H](F)[C@H](N)C2)nc2c(C#N)cc(F)cc21` [Example 447, 2-(2-((3R,4R)-3-amino-4-fluoropiperidin-1-yl)-4-cyano-6-fluoro-1H-benzo[d]imidazol-1-yl)-N-methyl-N-(2,2,2-trifluoroethyl)acetamide], for which the IC50 is 119 nM. Regarding `CCC1CN(C(=O)Cn2c(N3CC[C@@H](F)[C@H](N)C3)nc3cc(F)c(F)cc32)CCO1` (stereo partly drawn) [Example 518, 2-(2-((3R,4R)-3-amino-4-fluoropiperidin-1-yl)-5,6-difluoro-1H-benzo[d]imidazol-1-yl)-1-(2-ethylmorpholino)ethan-1-one], the IC50 is 400 nM. Take `N[C@@H]1CN(c2nc3cc(F)c(F)cc3n2Cc2ccc(C(F)F)cc2)CC[C@H]1F` [Example 363, (3R,4R)-1-(1-(4-(difluoromethyl)benzyl)-5,6-difluoro-1H-benzimidazol-2-yl)-4-fluoro-3-piperidinamine]: the IC50 came out at 31.3 nM.

For `CO[C@@H]1CCN(c2nc3cc(F)ccc3n2CC(=O)N(C)CC(F)(F)F)C[C@H]1N` [Example 483, 2-(2-((3R,4R)-3-amino-4-methoxypiperidin-1-yl)-5-fluoro-1H-benzo[d]imidazol-1-yl)-N-methyl-N-(2,2,2-trifluoroethyl)acetamide], the IC50 is 2740 nM. The result for `Cc1ccc(Cn2c(N3CCC[C@@H](N)C3)nc3ccccc32)cc1` [Example 386, (R)-1-(1-(4-methylbenzyl)-1H-benzo[d]imidazol-2-yl)piperidin-3-amine] reads 4260 nM.
